This note sets out measurements from the supplement of paper PMC10307832.

What all share (assay): relative viability (nuclei count vs DMSO), 5 days (fraction); higher = more cells survive
Compound in the experiment “Kobe2602 + Bortezomib”: C1=CC(=CC=C1NC(=S)NNC2=C(C=C(C=C2[N+](=O)[O-])C(F)(F)F)[N+](=O)[O-])F [Kobe2602] + CC(C)C[C@H](NC(=O)[C@H](Cc1ccccc1)NC(=O)c1cnccn1)B(O)O [Bortezomib] (partner 0.002 µM)
In outline: (§1)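 Lung cancer cell lines were seeded in 1536-well plates and dosed by pin tool the next day, with either a single drug or a fixed anchor-drug dose combined with five library-drug doses (not always all listed) spaced in √10 steps. Five days later, one step fixed the cells and stained their nuclei (final 0.05% Triton X-100, 1% formaldehyde, 1 ug/ml Hoechst), and nuclei were counted on 4× images. Relative viability is the nuclei count in treated wells divided by the count in vehicle wells, and each value is the median of duplicate plates.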

Compound in the experiment “Kobe2602 + Linsitinib”: C1=CC(=CC=C1NC(=S)NNC2=C(C=C(C=C2[N+](=O)[O-])C(F)(F)F)[N+](=O)[O-])F [Kobe2602] + C[C@]1(O)C[C@@H](c2nc(-c3ccc4ccc(-c5ccccc5)nc4c3)c3c(N)nccn32)C1 [Linsitinib] (partner 1 µM)
In outline: as §1

Compound in experiment [1]: COc1cc2nccc(Oc3ccc(NC(=O)C4(C(=O)Nc5ccc(F)cc5)CC4)cc3)c2cc1OC [Cabozantinib] + Nc1nc2[nH]cc(CCc3ccc(C(=O)N[C@@H](CCC(=O)O)C(=O)O)cc3)c2c(=O)[nH]1 [Pemetrexed] (partner 0.2 µM)
In a few lines: as §1

Compound in the experiment “Zosuquidar + OSI-027”: O[C@@H](COc1cccc2ncccc12)CN1CCN([C@@H]2c3ccccc3[C@@H]3[C@H](c4ccccc42)C3(F)F)CC1 [Zosuquidar] + COc1cccc2cc(-c3nc([C@H]4CC[C@H](C(=O)O)CC4)n4ncnc(N)c34)[nH]c12 [OSI-027] (partner 0.5 µM)
In outline: as §1

For the cell line HCC-15, the relative viability with Kobe2602 + Bortezomib (first compound 0.2 µM) was 0.959; with Kobe2602 + Bortezomib (first compound 0.6325 µM) it was 1.1; with Kobe2602 + Bortezomib (first compound 2 µM) it was 0.964; in the experiment with Kobe2602 + Bortezomib (first compound 6.325 µM) it was 0.994; with Kobe2602 + Bortezomib (first compound 20 µM) it was 1.03; with Kobe2602 + Linsitinib (first compound 0.2 µM), 0.881. Further, the relative viability with Kobe2602 + Linsitinib (first compound 0.6325 µM) was 0.919; in the experiment with Kobe2602 + Linsitinib (first compound 2 µM), 0.872; in the experiment with Kobe2602 + Linsitinib (first compound 6.325 µM), 0.832; with Kobe2602 + Linsitinib (first compound 20 µM) it was 0.899; in experiment [1] (first compound 0.02 µM), 0.231; in experiment [1] (first compound 0.06325 µM) it was 0.228. For the same cell line, the relative viability in experiment [1] (first compound 0.2 µM) is 0.226; in experiment [1] (first compound 0.6325 µM), 0.223; in experiment [1] (first compound 2 µM), 0.215; with Zosuquidar + OSI-027 (first compound 0.01 µM) it was 0.653; in the experiment with Zosuquidar + OSI-027 (first compound 0.03162 µM), 0.64; with Zosuquidar + OSI-027 (first compound 0.1 µM) it was 0.568. For the same cell line, the relative viability in the experiment with Zosuquidar + OSI-027 (first compound 0.3162 µM) was 0.779; with Zosuquidar + OSI-027 (first compound 1 µM), 0.725.

Turning to HCC-44, the relative viability was determined as 0.882 with Kobe2602 + Bortezomib (first compound 0.2 µM); 0.897 in the experiment with Kobe2602 + Bortezomib (first compound 0.6325 µM); 0.826 with Kobe2602 + Bortezomib (first compound 2 µM); 0.905 with Kobe2602 + Bortezomib (first compound 6.325 µM); 0.813 with Kobe2602 + Bortezomib (first compound 20 µM); 0.739 with Kobe2602 + Linsitinib (first compound 0.2 µM). For the same cell line, the relative viability with Kobe2602 + Linsitinib (first compound 0.6325 µM) amounted to 0.668; in the experiment with Kobe2602 + Linsitinib (first compound 2 µM), 0.632; with Kobe2602 + Linsitinib (first compound 6.325 µM), 0.624; in the experiment with Kobe2602 + Linsitinib (first compound 20 µM), 0.766; in experiment [1] (first compound 0.02 µM), 0.659; in experiment [1] (first compound 0.06325 µM), 0.609. Also, the relative viability in experiment [1] (first compound 0.2 µM) turned out to be 0.735; in experiment [1] (first compound 0.6325 µM), 0.701; in experiment [1] (first compound 2 µM), 0.724; in the experiment with Zosuquidar + OSI-027 (first compound 0.01 µM), 0.53; with Zosuquidar + OSI-027 (first compound 0.03162 µM) it was 0.391; with Zosuquidar + OSI-027 (first compound 0.1 µM), 0.542. For the same cell line, the relative viability with Zosuquidar + OSI-027 (first compound 0.3162 µM) came out at 0.521; with Zosuquidar + OSI-027 (first compound 1 µM), 0.581.

For the cell line HCC-78, the relative viability with Kobe2602 + Bortezomib (first compound 0.2 µM) is 0.543; in the experiment with Kobe2602 + Bortezomib (first compound 0.6325 µM) it was 0.574; in the experiment with Kobe2602 + Bortezomib (first compound 2 µM), 0.446; with Kobe2602 + Bortezomib (first compound 6.325 µM) it was 0.244; in the experiment with Kobe2602 + Bortezomib (first compound 20 µM), 0.57; with Kobe2602 + Linsitinib (first compound 0.2 µM) it was 0.61. Moreover, the relative viability in the experiment with Kobe2602 + Linsitinib (first compound 0.6325 µM) came to 0.495; in the experiment with Kobe2602 + Linsitinib (first compound 6.325 µM) it was 0.459; with Kobe2602 + Linsitinib (first compound 20 µM), 0.611; in experiment [1] (first compound 0.06325 µM), 0.941; in experiment [1] (first compound 0.2 µM), 0.908; in experiment [1] (first compound 0.6325 µM), 0.926. Also, the relative viability in experiment [1] (first compound 2 µM) amounted to 0.89; with Zosuquidar + OSI-027 (first compound 0.01 µM) it was 0.346; with Zosuquidar + OSI-027 (first compound 0.03162 µM), 0.356; in the experiment with Zosuquidar + OSI-027 (first compound 0.3162 µM), 0.422; in the experiment with Zosuquidar + OSI-027 (first compound 1 µM), 0.294.

In the case of IA-LM, the relative viability in the experiment with Kobe2602 + Bortezomib (first compound 0.6325 µM) turned out to be 0.873; in the experiment with Kobe2602 + Bortezomib (first compound 2 µM), 0.707; with Kobe2602 + Bortezomib (first compound 6.325 µM), 0.765; with Kobe2602 + Bortezomib (first compound 20 µM), 0.759; with Kobe2602 + Linsitinib (first compound 0.2 µM) it was 0.506; with Kobe2602 + Linsitinib (first compound 0.6325 µM), 0.462. The relative viability with Kobe2602 + Linsitinib (first compound 2 µM) was found to be 0.632; with Kobe2602 + Linsitinib (first compound 6.325 µM), 0.476; in the experiment with Kobe2602 + Linsitinib (first compound 20 µM) it was 0.573.

With LK-2, the relative viability stood at 0.618 with Kobe2602 + Linsitinib (first compound 0.2 µM); 0.614 with Kobe2602 + Linsitinib (first compound 0.6325 µM); 0.415 with Kobe2602 + Linsitinib (first compound 2 µM); 0.643 in the experiment with Kobe2602 + Linsitinib (first compound 6.325 µM); 0.567 with Kobe2602 + Linsitinib (first compound 20 µM); 0.427 in experiment [1] (first compound 0.06325 µM). Further, the relative viability came to 0.236 in experiment [1] (first compound 0.2 µM); 0.266 in experiment [1] (first compound 0.6325 µM); 0.296 in experiment [1] (first compound 2 µM); 0.172 in the experiment with Zosuquidar + OSI-027 (first compound 0.01 µM); 0.216 in the experiment with Zosuquidar + OSI-027 (first compound 0.03162 µM); 0.21 in the experiment with Zosuquidar + OSI-027 (first compound 0.1 µM). For the same cell line, the relative viability with Zosuquidar + OSI-027 (first compound 0.3162 µM) is 0.209; with Zosuquidar + OSI-027 (first compound 1 µM) it was 0.174.

Turning to NCI-H358, the relative viability was 0.684 in the experiment with Kobe2602 + Linsitinib (first compound 0.2 µM); 0.77 in the experiment with Kobe2602 + Linsitinib (first compound 0.6325 µM); 0.771 with Kobe2602 + Linsitinib (first compound 2 µM); 0.758 with Kobe2602 + Linsitinib (first compound 6.325 µM); 0.732 in the experiment with Kobe2602 + Linsitinib (first compound 20 µM); 0.181 in experiment [1] (first compound 0.02 µM). Also, the relative viability was 0.171 in experiment [1] (first compound 0.06325 µM); 0.16 in experiment [1] (first compound 0.2 µM); 0.18 in experiment [1] (first compound 0.6325 µM); 0.166 in experiment [1] (first compound 2 µM); 0.779 with Zosuquidar + OSI-027 (first compound 0.01 µM); 0.769 in the experiment with Zosuquidar + OSI-027 (first compound 0.03162 µM). Besides, the relative viability with Zosuquidar + OSI-027 (first compound 0.1 µM) is 0.618; with Zosuquidar + OSI-027 (first compound 0.3162 µM), 0.736; with Zosuquidar + OSI-027 (first compound 1 µM), 0.734.

In the case of NCI-H522, the relative viability in experiment [1] (first compound 0.02 µM) is 1.16; in experiment [1] (first compound 0.06325 µM), 0.972; in experiment [1] (first compound 0.2 µM) it was 0.943; in experiment [1] (first compound 0.6325 µM), 1.25; in experiment [1] (first compound 2 µM), 0.934; with Zosuquidar + OSI-027 (first compound 0.01 µM) it was 0.714. Further, the relative viability with Zosuquidar + OSI-027 (first compound 0.03162 µM) was determined as 0.58; in the experiment with Zosuquidar + OSI-027 (first compound 0.1 µM), 0.756; in the experiment with Zosuquidar + OSI-027 (first compound 0.3162 µM), 0.898; with Zosuquidar + OSI-027 (first compound 1 µM), 0.857.

As to NCI-H727, the relative viability with Kobe2602 + Bortezomib (first compound 0.2 µM) is 0.901; with Kobe2602 + Bortezomib (first compound 0.6325 µM), 0.883; in the experiment with Kobe2602 + Bortezomib (first compound 2 µM), 0.83; in the experiment with Kobe2602 + Bortezomib (first compound 6.325 µM) it was 0.885; in the experiment with Kobe2602 + Bortezomib (first compound 20 µM), 0.851; in the experiment with Kobe2602 + Linsitinib (first compound 0.2 µM), 0.306. Moreover, the relative viability with Kobe2602 + Linsitinib (first compound 0.6325 µM) amounted to 0.319; with Kobe2602 + Linsitinib (first compound 2 µM), 0.253; with Kobe2602 + Linsitinib (first compound 6.325 µM), 0.239; in the experiment with Kobe2602 + Linsitinib (first compound 20 µM), 0.324; with Zosuquidar + OSI-027 (first compound 0.01 µM), 0.622; with Zosuquidar + OSI-027 (first compound 0.03162 µM) it was 0.538. Also, the relative viability with Zosuquidar + OSI-027 (first compound 0.1 µM) is 0.343; with Zosuquidar + OSI-027 (first compound 0.3162 µM) it was 0.783; with Zosuquidar + OSI-027 (first compound 1 µM), 0.705.

Turning to NCI-H1299, the relative viability with Kobe2602 + Bortezomib (first compound 0.2 µM) worked out at 1.01; with Kobe2602 + Bortezomib (first compound 0.6325 µM), 0.982; in the experiment with Kobe2602 + Bortezomib (first compound 2 µM) it was 0.986; with Kobe2602 + Bortezomib (first compound 6.325 µM) it was 1.07; in the experiment with Kobe2602 + Bortezomib (first compound 20 µM), 0.995; with Kobe2602 + Linsitinib (first compound 0.2 µM) it was 0.887. The relative viability in the experiment with Kobe2602 + Linsitinib (first compound 0.6325 µM) was 0.979; with Kobe2602 + Linsitinib (first compound 2 µM), 0.961; with Kobe2602 + Linsitinib (first compound 6.325 µM) it was 1.03; with Kobe2602 + Linsitinib (first compound 20 µM), 0.945.
